This note sets out measurements from PMC6294363, “Structural and functional insight into serine hydroxymethyltransferase from Helicobacter pylori” (PLoS ONE, 2018).

Series [1] concerns the target T1, HpSHMT (H. pylori SHMT; HP0183 gene product) (Helicobacter pylori, UniProt P56089).
T1 construct: gene glyA; full-length, C-terminal 6xHis tag (pQE60), expressed in E. coli SG 13009; predicted monomer 46,776 Da; homodimer; purified largely as apoprotein
T1 sequence (P56089 1-416): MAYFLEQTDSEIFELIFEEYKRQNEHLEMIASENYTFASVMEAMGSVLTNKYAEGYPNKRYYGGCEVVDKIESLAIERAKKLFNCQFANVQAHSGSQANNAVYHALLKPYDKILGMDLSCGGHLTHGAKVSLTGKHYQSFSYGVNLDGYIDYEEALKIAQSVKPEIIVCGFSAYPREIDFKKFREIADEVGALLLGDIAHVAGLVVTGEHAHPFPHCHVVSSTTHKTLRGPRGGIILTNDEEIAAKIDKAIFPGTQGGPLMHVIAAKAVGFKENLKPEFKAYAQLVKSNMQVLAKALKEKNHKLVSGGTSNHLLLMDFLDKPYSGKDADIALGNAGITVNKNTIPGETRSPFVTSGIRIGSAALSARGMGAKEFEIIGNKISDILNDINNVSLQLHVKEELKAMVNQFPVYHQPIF
Kind of series: absorbance at […] nm of enzyme-PLP-glycine-folate ternary complex, MTHF titration. It counts as binding. Conditions: read-out: apparent KFol.

Series [2] addresses T1, HpSHMT (H. pylori SHMT; HP0183 gene product). Kind of series: coupled alcohol dehydrogenase assay, NADH oxidation at […] nm. It counts as biochemical. The conditions noted are these: 20 uM SHMT, 250 uM PLP, 250 uM NADH, 50 mM phosphate pH 8.0, room temperature; folate-independent retroaldol cleavage.
Series [3] shares this target. The experiment in a line: absorbance at […] nm of enzyme-PLP-glycine-folate ternary complex. Conditions: fixed 5 mM glycine with 250 uM PLP and 0-2 mM MTHF, pH 8.0, room temperature. The series is classed as binding.
Series [4] deals with the molecule itself. The experiment in a line: crystal structure; HpSHMT apoprotein, hanging drop vapour diffusion, 20% PEG 3350, 0.2 M sodium acetate, room temperature; space group P212121, two monomers in the asymmetric unit; 2.8 Å.

On to `Nc1nc2c(c(=O)[nH]1)N1CN(c3ccc(C(=O)N[C@@H](CCC(=O)O)C(=O)O)cc3)C[C@H]1CN2` [MTHF], for which the Kd in series [1] was determined as 300 µM.

For the molecule `C[C@H](O)[C@H](N)C(=O)O` [L-allothreonine], the “coupled alcohol dehydrogenase assay, NADH oxidation at 340 nm” value in series [2] is “it is able to transform L-allothreonine to acetaldehyde, thus confirming its activity as SHMT”.

On to `NCC(=O)O` [glycine], for which, in series [3], the “absorbance at 502 nm of enzyme-PLP-glycine-folate ternary complex” value was “corresponding to the intermediate ternary enzyme-PLP-glycine-folate complex”.

B1: Serine hydroxymethyltransferase from Helicobacter pylori 26695 (HP0183 gene product) (enzyme, Helicobacter pylori strain 26695, UniProt P56089 1-416, looked up)
chain: T1 sequence (P56089 1-416)
notes: Serine hydroxymethyltransferase (glyA, ORF HP0183) of Helicobacter pylori strain 26695; gene amplified with primers SA36/SA37 (from the ATG to the end of the ORF) and inserted into pQE60; residues 3-416 modelled in the crystal; Homodimer by crystal structure and dynamic light scattering; Predicted mass per monomer 46,776 Da; also called HpSHMT; SHMT; source: E. coli SG 13009 (pREP4), pQE60, …
In the case of B1, the “stoichiometry N” value in series [4] came to 2.

As usually defined, the stoichiometry N is a count of units in the complex or per binding partner.
